Results on 25 compounds are retold here after patent US10722514B2 (FLX Bio, Inc., priority 2017, dated 2020).

Where a name gives a salt, the structure may show the parent alone.

For orientation: IC50 means the concentration that gives 50% inhibition.

For one experiment, the target named is T1, recombinant full-length USP7 (Homo sapiens, UniProt Q93009).
T1 construct: A 25 μl reaction volume containing recombinant full-length USP7 (62 pM)
T1 sequence (Q93009 whole entry): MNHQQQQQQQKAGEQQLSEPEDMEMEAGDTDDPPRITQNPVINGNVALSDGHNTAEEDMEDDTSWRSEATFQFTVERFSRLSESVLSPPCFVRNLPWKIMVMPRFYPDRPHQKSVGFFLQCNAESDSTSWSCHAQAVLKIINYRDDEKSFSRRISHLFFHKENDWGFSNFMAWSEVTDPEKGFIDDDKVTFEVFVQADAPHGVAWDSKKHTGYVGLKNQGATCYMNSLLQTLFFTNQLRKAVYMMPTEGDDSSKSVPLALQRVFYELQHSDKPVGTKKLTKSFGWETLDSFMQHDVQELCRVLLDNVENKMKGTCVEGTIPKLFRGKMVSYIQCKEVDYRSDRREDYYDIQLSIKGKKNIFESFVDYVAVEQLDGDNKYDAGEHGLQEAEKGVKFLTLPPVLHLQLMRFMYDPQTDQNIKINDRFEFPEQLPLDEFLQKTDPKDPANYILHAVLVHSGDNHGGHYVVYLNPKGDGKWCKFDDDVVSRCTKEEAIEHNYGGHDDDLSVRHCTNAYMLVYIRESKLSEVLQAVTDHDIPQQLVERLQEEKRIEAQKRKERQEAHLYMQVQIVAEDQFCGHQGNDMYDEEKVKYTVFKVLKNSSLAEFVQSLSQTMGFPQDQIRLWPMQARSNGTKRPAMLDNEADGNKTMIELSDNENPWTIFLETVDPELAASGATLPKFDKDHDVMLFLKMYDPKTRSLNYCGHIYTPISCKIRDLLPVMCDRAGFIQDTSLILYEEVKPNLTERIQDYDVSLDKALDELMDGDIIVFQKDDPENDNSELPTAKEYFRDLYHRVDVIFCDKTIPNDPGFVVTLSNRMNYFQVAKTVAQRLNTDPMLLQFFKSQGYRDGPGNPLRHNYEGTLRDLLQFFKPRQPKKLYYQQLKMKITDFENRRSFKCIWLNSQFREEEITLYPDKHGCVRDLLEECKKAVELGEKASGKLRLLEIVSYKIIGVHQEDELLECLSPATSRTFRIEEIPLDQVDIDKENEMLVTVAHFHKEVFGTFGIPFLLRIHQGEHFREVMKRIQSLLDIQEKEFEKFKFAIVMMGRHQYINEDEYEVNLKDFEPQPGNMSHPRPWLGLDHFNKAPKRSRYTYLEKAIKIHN
The experiment in a line: USP7-mediated ubiquitin-rhodamine cleavage assay. It counts as biochemical. The conditions noted are these: recombinant full-length USP7 62 pM; ubiquitin-rhodamine 100 nM; 30-minute incubation with compound, 1 hour reaction at room temperature; read-out: Potency: USP7 IC50. A digest of the protocol:
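Compounds are first incubated with 62 pM enzyme for 30 min at room temperature in pH 7.3 HEPES buffer containing TCEP and BSA. Cleavage of 100 nM ubiquitin-rhodamine proceeds for 1 h before an acid quench, and IC50 is derived from fluorescence.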
As for `Cc1cc(C#N)cc(-c2ccnc3cc(CN4C(=O)CCS4(=O)=O)sc23)c1O[C@@H]1CNC[C@@H]1F` [Example 114, 3-(2-((1,1-Dioxido-3-oxoisothiazolidin-2-yl)methyl)thieno[3,2-b]pyridin-7-yl)-4-(((3R,4S)-4-fluoropyrrolidin-3-yl)oxy)-5-methylbenzonitrile], the IC50 was less than 1000 nM.

`Cc1cc(Cl)cc(-c2ccnc3cc(CN4C(=O)C5C(C4=O)C5(C)C)sc23)c1O[C@H]1CC[C@H](C)NC1` (stereo partly drawn) [Example 399, 3-[[7-[5-chloro-3-methyl-2-[[(3S,6S)-6-methyl-3-piperidyl]oxy]phenyl]thieno[3,2-b]pyridin-2-yl]methyl]-6,6-dimethyl-3-azabicycllo[3.1.0]hexane-2,4-dione; 2,2,2-trifluoroacetic acid]: the IC50 was less than 1000 nM.

Turning to `Cc1cc(Cl)cc(-c2ccnc3cc(CN4C(=O)C5CCC5C4=O)sc23)c1O[C@@H]1CN(C(=O)OC(C)(C)C)C[C@@H]1F` (stereo partly drawn) [Example 355, tert-butyl (3R,4S)-3-[4-chloro-2-[2-[(2,4-dioxo-3-azabicyclo[3.2.0]heptan-3-yl)methyl]thieno[3,2-b]pyridin-7-yl]-6-methyl-phenoxy]-4-fluoro-pyrrolidine-1-carboxylate; 2,2,2-trifluoroacetic acid], the IC50 is less than 1000 nM.

Regarding `Cc1cc(Cl)cc(-c2ccnc3cc(CN4C(=O)C5CCCN5C4=O)sc23)c1OC1CCNCC1` (stereo not shown) [Example 218, 2-((7-(5-Chloro-3-methyl-2-(piperidin-4-yloxy)phenyl)thieno[3,2-b]pyridin-2-yl)methyl)tetrahydro-1H-pyrrolo[1,2-c]imidazole-1,3(2H)-dione], the IC50 lay within 1000 to 10000 nM.

For `Cc1cc(Cl)cc(-c2ccnc3cc(Cn4c(=O)ccn(C)c4=O)sc23)c1O[C@@H]1CNC[C@@H]1F` [Example 151, 3-((7-(5-Chloro-2-(((3R,4S)-4-fluoropyrrolidin-3-yl)oxy)-3-methylphenyl)thieno[3,2-b]pyridin-2-yl)methyl)-1-methylpyrimidine-2,4(1H,3H)-dione], the IC50 was less than 1000 nM.

As for “3-((7-(5-Chloro-3-methyl-2-(((1R,3R)-3-morpholinocyclopentyl)oxy)phenyl)thieno[3,2-b]pyridin-2-yl)methyl)-1-(2,2,2-trifluoroethyl)pyrimidine-2,4(1H,3H)-dione [Example 246]”, the IC50 is less than 1000 nM.

As to “1-((4-(5-Chloro-2-(((3R,4S)-4-fluoropyrrolidin-3-yl)oxy)-3-methylphenyl)thieno[3,2-d]pyrimidin-6-yl)methyl)pyrrolidine-2,5-dione [Example 96]”, the IC50 was less than 1000 nM.

With `Cc1cc(Cl)cc(-c2ccnc3cc(CN4C(=O)C5C(C4=O)C5(C)C)sc23)c1OC1CNCC1(C)F` (stereo not shown) [Example 372, 3-[[7-[5-chloro-2-(4-fluoro-4-methyl-pyrrolidin-3-yl)oxy-3-methyl-phenyl]thieno[3,2-b]pyridin-2-yl]methyl]-6,6-dimethyl-3-azabicyclo[3.1.0]hexane-2,4-dione dihydrochloride], the IC50 was less than 1000 nM.

With `Cc1cc(Cl)cc(-c2ccnc3cc(CN4C(=O)C5C(C4=O)C5(C)C)sc23)c1OC1CNCC1(C)C` (stereo not shown) [Example 369, 3-[[7-[5-chloro-2-(4,4-dimethylpyrrolidin-3-yl)oxy-3-methyl-phenyl]thieno[3.2-b]pyridin-2-yl]methyl]-6,6-dimethyl-3-azabicyclo[3.1.0]hexane-2,4-dione], the concentration for half-maximal inhibition (IC50) is less than 1000 nM.

For the compound `Cc1cc(Cl)cc(-c2ncnc3cc(CN4C(=O)C5CC5C4=O)sc23)c1OC1CCNCC1` (stereo not shown) [Example 231, 3-((4-(5-Chloro-3-methyl-2-(piperidin-4-yloxy)phenyl)thieno[3,2-d]pyrimidin-6-yl)methyl)-3-azabicyclo[3.1.0]hexane-2,4-dione], the IC50 lay within 1000 to 10000 nM.

With `Cc1cc(Cl)cc(-c2ccnc3cc(CN4C(=O)CC(C)(C)C4=O)sc23)c1O[C@H]1CCCNC1` [Example 313, 1-[[7-[5-chloro-3-methyl-2-[[(3S)-3-piperidyl]oxy]phenyl]thieno[3,2-b]pyridin-2-yl]methyl]-3,3-dimethyl-pyrrolidine-2,5-dione; 2,2,2-trifluoroacetic acid], the IC50 is less than 1000 nM.

The experiment is the same for the next values; noted with them: recombinant full-length USP7 62 pM; ubiquitin-rhodamine 100 nM; 30-minute incubation, 1 hour reaction at room temperature; read-out: Potency (USP7 IC50).
For `Cc1cc(Cl)cc(-c2ccnc3cc(Cn4c(=O)ccn(CC(F)(F)F)c4=O)sc23)c1OC1CC2(COCCN2)C1` (stereo not shown) [Example 698, 3-[[7-[5-chloro-3-methyl-2-(8-oxa-5-azaspiro[3.5]nonan-2-yloxy)phenyl]thieno[3,2-b]pyridin-2-yl]methyl]-1-(2,2,2-trifluoroethyl)pyrimidine-2,4-dione], the IC50 is less than 1000 nM.

Staying with this experiment, now noted: recombinant full-length USP7 62 pM; ubiquitin-rhodamine 100 nM; 30-minute pre-incubation, 1 hour reaction at room temperature; read-out: Potency (USP7 IC50).
With `Cc1cc(Cl)cc(-c2ccnc3cc(Cn4c(=O)ccn(C)c4=O)sc23)c1OC1CNCCC1(F)F` (stereo not shown) [Example 514, 3-[[7-[5-chloro-2-[(4,4-difluoro-3-piperidyl)oxy]-3-methyl-phenyl]thieno[3,2-b]pyridin-2-yl]methyl]-1-methyl-pyrimidine-2,4-dione; 2,2,2-trifluoroacetic acid], the IC50 is less than 1000 nM.

In the case of `Cc1cc(Cl)cc(-c2ccnc3cc(Cn4c(=O)ccn(C)c4=O)sc23)c1O[C@@H]1CCN(C)C[C@@H]1C` [Example 457, 3-[[7-[5-chloro-2-[[(3S,4R)-1,3-dimethyl-4-piperidyl]oxy]-3-methyl-phenyl]thieno[3,2-b]pyridin-2-yl]methyl]-1-methyl-pyrimidine-2,4-dione], the IC50 is less than 1000 nM.

With `Cc1cc(Cl)cc(-c2ncnc3cc(Cn4c(=O)ccn(C(C)C)c4=O)sc23)c1O[C@H]1CCCN(C(C)C)C1` [Example 513, 3-[[4-[5-chloro-2-[[(3S)-1-isopropyl-3-piperidyl]oxy]-3-methyl-phenyl]thieno[3,2-d]pyrimidin-6-yl]methyl]-1-isopropyl-pyrimidine-2,4-dione], the IC50 is less than 1000 nM.

For `Cc1cc(Cl)cc(-c2ccnc3cc(Cn4c(=O)ccn(C)c4=O)sc23)c1O[C@@H]1C[C@@H]2COCCN2C1` [Example 502, 3-[[7-[2-[[(7R,8aR)-3,4,6,7,8,8a-hexahydro-1H-pyrrolo[2,1-c][1,4]oxazin-7-yl]oxy]-5-chloro-3-methyl-phenyl]thieno[3,2-b]pyridin-2-yl]methyl]-1-methyl-pyrimidine-2,4-dione], the concentration for half-maximal inhibition (IC50) is less than 1000 nM.

For the compound `Cc1cc(Cl)cc(-c2ncnc3cc(Cn4c(=O)ccn(C(C)C)c4=O)sc23)c1OC1CC2CNC1C2` (stereo not shown) [Example 509, 3-[[4-[2-(3-azabicyclo[2.2.1]heptan-5-yloxy)-5-chloro-3-methyl-phenyl]thieno[3,2-d]pyrimidin-6-yl]methyl]-1-isopropyl-pyrimidine-2,4-dione], the IC50 is less than 1000 nM.

On to `Cc1cc(Cl)cc(-c2ccnc3cc(Cn4c(=O)c(F)cn(CC(F)(F)F)c4=O)sc23)c1O[C@@H]1CCNC[C@@H]1C` [Example 551, 3-[[7-[5-chloro-3-methyl-2-[[(3S,4R)-3-methyl-4-piperidyl]oxy]phenyl]thieno[3,2-b]pyridin-2-yl]methyl]-5-fluoro-1-(2,2,2-trifluoroethyl)pyrimidine-2,4-dione], for which the IC50 is less than 1000 nM.

For `Cc1cc(Cl)cc(-c2ccnc3cc(Cn4c(=O)ccn(C)c4=O)sc23)c1O[C@@H]1CNC[C@H](C)C1` [Example 524, 3-[[7-[5-chloro-3-methyl-2-[[(3S,5R)-5-methyl-3-piperidyl]oxy]phenyl]thieno[3,2-b]pyridin-2-yl]methyl]-1-methyl-pyrimidine-2,4-dione], the IC50 is less than 1000 nM.

With `Cc1cc(Cl)cc(-c2ncnc3cc(Cn4c(=O)ccn(C(C)C)c4=O)sc23)c1OC1CC(N)C1` (stereo not shown) [Example 541, 3-[[4-[2-(3-aminocyclobutoxy)-5-chloro-3-methyl-phenyl]thieno[3,2-d]pyrimidin-6-yl]methyl]-1-isopropyl-pyrimidine-2,4-dione; 2,2,2-trifluoroacetic acid], the concentration for half-maximal inhibition (IC50) is less than 1000 nM.

In the case of `Cc1cc(Cl)cc(-c2ccnc3cc(Cn4c(=O)ccn(C)c4=O)sc23)c1O[C@H]1CCNC[C@]1(C)F` [Example 545, 3-[[7-[5-chloro-2-[[(3S,4S)-3-fluoro-3-methyl-4-piperidyl]oxy]-3-methyl-phenyl]thieno[3,2-b]pyridin-2-yl]methyl]-1-methyl-pyrimidine-2,4-dione; 2,2,2-trifluoroacetic acid], the IC50 was less than 1000 nM.

For `Cc1cc(Cl)cc(-c2ccnc3cc(Cn4c(=O)ccn(C)c4=O)sc23)c1OC1CCCN(CCC(F)(F)F)C1` (stereo not shown) [Example 507, 3-[[7-[5-chloro-3-methyl-2-[[1-(3,3,3-trifluoropropyl)-3-piperidyl]oxy]phenyl]thieno[3,2-b]pyridin-2-yl]methyl]-1-methyl-pyrimidine-2,4-dione], the IC50 is less than 1000 nM.

Consider `Cc1cc(Cl)cc(-c2ccnc3cc(Cn4c(=O)ccn(CC(F)(F)F)c4=O)sc23)c1O[C@@H]1CNC[C@H]1C` [Example 628, 3-[[7-[5-chloro-3-methyl-2-[(3S,4R)-4-methylpyrrolidin-3-yl]oxy-phenyl]thieno[3,2-b]pyridin-2-yl]methyl]-1-(2,2,2-trifluoroethyl)pyrimidine-2,4-dione], for which the IC50 was less than 1000 nM.

As for `CCO[C@H]1CNC[C@H]1Oc1c(C)cc(Cl)cc1-c1ccnc2cc(Cn3c(=O)ccn(CC(F)(F)F)c3=O)sc12` [Example 604, 3-[[7-[5-chloro-2-[(3R,4S)-4-ethoxypyrrolidin-3-yl]oxy-3-methyl-phenyl]thieno[3,2-b]pyridin-2-yl]methyl]-1-(2,2,2-trifluoroethyl)pyrimidine-2,4-dione], the IC50 is less than 1000 nM.

For the compound `Cc1cc(Cl)cc(-c2ccnc3cc(Cn4c(=O)ccn(C)c4=O)sc23)c1O[C@@H]1CN(C)C[C@@H]1F` [Example 458, 3-[[7-[5-chloro-2-[(3R,4S)-4-fluoro-1-methyl-pyrrolidin-3-yl]oxy-3-methyl-phenyl]thieno[3,2-b]pyridin-2-yl]methyl]-1-methyl-pyrimidine-2,4-dione; 2,2,2-trifluoroacetic acid], the half-inhibitory concentration (IC50) was less than 1000 nM.
